In paper PMC9127750, “Structure-based design of CDC42 effector interaction inhibitors for the treatment of cancer” (Cell reports, 2022):
Read-outs that look alike come from different tables or passages of the source.

Assays:
Test in all cases: cells
Colo 205 = settings: Homo sapiens, COLO 205, read-out: IC50 ARN22089
Method: (§1) Cancer cell line viability assay was performed using a CellTiterGlo assay. Cells were cultured in their appropriate media and seeded in white multi-well plates. For the assays, cells were incubated with compound at 37°C overnight, and a CellTiterGlo assay was performed to quantify viable cells.

HT-29 = settings: Homo sapiens, HT-29, read-out: IC50 ARN22089
Method: as §1

T84 = settings: Homo sapiens, T84, read-out: IC50 ARN22089
Method: as §1

RL95-2 = settings: Homo sapiens, RL95-2, read-out: IC50 ARN22089
Method: as §1

K562 = settings: Homo sapiens, K562, read-out: IC50 ARN22089
Method: as §1

LN229 = settings: Homo sapiens, LN-229, read-out: IC50 ARN22089
Method: as §1

Ishikawa = settings: Homo sapiens, read-out: IC50 ARN22089
Method: as §1

M07e = settings: M-07e, read-out: IC50 ARN22089
Method: as §1

KG-1 = settings: Homo sapiens, KG-1, read-out: IC50 ARN22089
Method: as §1

HT-1080 = settings: Homo sapiens, HT-1080, read-out: IC50 ARN22089
Method: as §1

MOLT-4 = settings: Homo sapiens, MOLT-4, read-out: IC50 ARN22089
Method: as §1

Caki-1 = settings: Homo sapiens, CAKI-1, read-out: IC50 ARN22089
Method: as §1

HEC-1-B = settings: Homo sapiens, read-out: IC50 ARN22089
Method: as §1

J82 = settings: Homo sapiens, J82, read-out: IC50 ARN22089
Method: as §1

KARPAS 299 = settings: Homo sapiens, KARPAS-299, read-out: IC50 ARN22089
Method: as §1

NCI-H1581 = settings: Homo sapiens, NCI-H1581, read-out: IC50 ARN22089
Method: as §1

HCT-15 = settings: Homo sapiens, HCT-15, read-out: IC50 ARN22089
Method: as §1

DU-145 = settings: Homo sapiens, DU-145, read-out: IC50 ARN22089
Method: as §1

MKN-45 = settings: Homo sapiens, MKN-45, read-out: IC50 ARN22089
Method: as §1

H1299 = settings: Homo sapiens, NCI-H1299, read-out: IC50 ARN22089
Method: as §1

HEC-1-A = settings: Homo sapiens, read-out: IC50 ARN22089
Method: as §1

Saos-2 EC = settings: Homo sapiens, SAOS-2, read-out: IC50 ARN22089
Method: as §1

MCF-7 = settings: Homo sapiens, MCF7, read-out: IC50 ARN22089
Method: as §1

HCC38 = settings: Homo sapiens, HCC38, read-out: IC50 ARN22089
Method: as §1

NCI-N87 = settings: Homo sapiens, NCI-N87, read-out: IC50 ARN22089
Method: as §1

[1] = test system: WM3248, SKMel3, A375, SW480, and SKM28; settings: WM3248, SKMel3, A375, and SW480
Method: as §1

Hep3B2.1-7 = settings: read-out: IC50 ARN22089
Method: as §1

SK-ES-1 = settings: Homo sapiens, SK-ES1, read-out: IC50 ARN22089
Method: as §1

SW480 = settings: Homo sapiens
Method: as §1

OCI-AML5 = settings: Homo sapiens, OCI-AML-5, read-out: IC50 ARN22089
Method: as §1

SW620 = settings: Homo sapiens, SW-620, read-out: IC50 ARN22089
Method: as §1

RERF-LC-MS = settings: read-out: IC50 ARN22089
Method: as §1

EFM-192A = settings: read-out: IC50 ARN22089
Method: as §1

Caki-2 = settings: Homo sapiens, CAKI-2, read-out: IC50 ARN22089
Method: as §1

MOLM-13 = settings: Homo sapiens, MOLM-13, read-out: IC50 ARN22089
Method: as §1

HL-60 = settings: Homo sapiens, HL-60, read-out: IC50 ARN22089
Method: as §1

MV4-11 = settings: Homo sapiens, MV4-11, read-out: IC50 ARN22089
Method: as §1

HCT116 = settings: Homo sapiens, HCT-116, read-out: IC50 ARN22089
Method: as §1

A2058 = settings: Homo sapiens, A2058, read-out: IC50 ARN22089
Method: as §1

RKO = settings: Homo sapiens, read-out: IC50 ARN22089
Method: as §1

RPMI 8226 = settings: Homo sapiens, RPMI-8226, read-out: IC50 ARN22089
Method: as §1

CN(C)c1cccc(Nc2cc(-c3ccccc3)nc(C3CCNCC3)n2)c1 [ARN22089, N1,N1-dimethyl-N3-(6-phenyl-2-(piperidin-4-yl)pyrimidin-4-yl)benzene-1,3-diamine]
IC50 (Colo 205): 7 µM
IC50 (HT-29): 3.5 µM
IC50 (T84): 5.3 µM
IC50 (RL95-2): 5.7 µM
IC50 (K562): 9 µM
IC50 (LN229): 7.8 µM
IC50 (Ishikawa): 8.5 µM
IC50 (M07e): 11 µM
IC50 (KG-1): 14 µM
IC50 (HT-1080): 11 µM
IC50 (MOLT-4): 11 µM
IC50 (Caki-1): 11 µM
IC50 (HEC-1-B): 18 µM
IC50 (J82): 5.9 µM
IC50 (KARPAS 299): 11 µM
IC50 (NCI-H1581): 24 µM
IC50 (HCT-15): 8.7 µM
IC50 (DU-145): 11 µM
IC50 (MKN-45): 4.1 µM
IC50 (H1299): 11 µM
IC50 (HEC-1-A): 9.5 µM
IC50 (Saos-2 EC): 9 µM
IC50 (MCF-7): 7.3 µM
IC50 (HCC38): 10 µM
IC50 (NCI-N87): 5.7 µM
IC50 activity against the more sensitive cell lines [1]: single-digit micromolar
IC50 (Hep3B2.1-7): 3.6 µM
IC50 (SK-ES-1): 12 µM
IC50 (SW480; SW480, read-out: IC50 ARN22089): 3.4 µM
IC50 (SW480; SW480, read-out: IC50 SW480): 8.61 µM
IC50 (OCI-AML5): 15 µM
IC50 (SW620): 5.9 µM
IC50 (RERF-LC-MS): 12 µM
IC50 (EFM-192A): 14 µM
IC50 (Caki-2): 9.9 µM
IC50 (MOLM-13): 13 µM
IC50 (HL-60): 8.1 µM
IC50 (MV4-11): 4.4 µM
IC50 (HCT116): 5.2 µM
IC50 (A2058): 3.7 µM
IC50 (RKO): 3.9 µM
IC50 (RPMI 8226): 5.8 µM
